As usually defined, the IC50 is the point on the concentration scale where inhibition reaches its midpoint. High values mean weaker potency in that assay, low ones greater potency in that assay.

The text below walks through data of patent publication US6677435B2, “Prodrug activation using catalytic antibodies” (The Scripps Research Institute, priority 1999, dated 2004).

In one experiment the test system is antibody 38C2. In words: Kinetic analysis of antibody 38C2-catalyzed prodrug activation (RP-HPLC). Format: biochemical, mouse. On the procedure:
All antibody reactions were carried out in PBS (pH 7.4) at 37° C. in microfuge tubes. […] Kinetic data were derived from Lineweaver-Burk plots. […] Topoisomerase I and II inhibitor doxorubicin was chosen as a model compound for this prodrug activation concept because its structure activity relationship is well characterized and it has been used previously in ADEPT systems (Niculescu-Duvaz, I. & Springer, C. J. (1997) Adv. Drug Delivery Rev. 26, 151-172). Doxorubicin is a drug approved for cancer therapy that suffers from misdirected toxicity. […] The tertiary aldol was chosen as the first reaction since no known natural enzyme catalyzes this particular type of retro-aldol reaction. […] Typically 38C2 is highly enantioselective, however, under the conditions studied, the reaction proceeded to completion indicative of loss of enantioselectivity and complete activation of the prodrug. According to a pharmacokinetic analysis of ADEPT systems, low kcat values combined with high Km values are expected to increase the tumor to blood ratio of the free drug, leading to a reduction in peripheral toxicity (Yuan, J., Baxter, L. T. & Jain, R. K. (1991). Cancer Res. 51, 3119-3130). […] To this end, both the masking linker and catalytic antibody are being optimized.

The subject of experiment [1] is human prostate cancer cell line LNCap. The experiment can be described thus: Cell growth inhibition assay (lactate dehydrogenase colour reaction), LNCap. Format: cell-based. The source says:
(§1) Human colon carcinoma cell lines HT29 and LIM1215 were kindly provided by Dr. Lloyd J. Old from The Ludwig Institute for Cancer Research in New York. Human prostate cancer cell line LNCap was purchased from American Type Culture Collection (Manassas, Va.). All cell lines were maintained in RPMI 1640 medium (Hyclone, Logan, Utah) supplemented with 10% fetal bovine serum (Life Technologies, Gaithersburg, Md.) and antibiotic-antimycotic reagents (Life Technologies) containing penicillin, streptomycin, and amphotericin B. The cell lines were cultivated in culture flasks at 37° C. in a humidifying incubator in an atmosphere of 5% CO2.
(§2) Stock solutions of 5 mM doxorubicin and prodoxorubicin in DMF, respectively, were stored at 4° C. For cell growth inhibition assays, 250-μM dilutions of doxorubicin and prodoxorubicin in PBS (pH 7.4) were freshly prepared from the 5 mM stock solutions and further diluted in cell culture medium to yield 10 nM to 25 μM solutions. Methyl vinyl ketone was purchased from Aldrich (Milwaukee, Wis.). Stock solutions of 1 mM camptothecin and procamptothecin in DMF, respectively, were stored at 4° C. […] Prior to the quantitative cell growth inhibition assay, the cell density was qualitatively analyzed by microscopy. This visual evaluation always matched the result of the quantitative analysis. […] For quantification, 50 μl aliquots were transferred to another 96-well plate and the color was read at 490 nm in an ELISA plate reader. The absorbance data were converted to percent cell density with the untreated controls being 100% and the background of the color reaction being 0%.
(§3) The antiproliferative effects of drug and prodrug were monitored by quantifying the cell growth in the presence of a range of concentrations of doxorubicin and prodoxorubicin, respectively. Three different human cancer cell lines were evaluated, human colon carcinoma cell lines HT29 and LIM1215 and human prostate cancer cell line LNCap. […]

For experiment [2], the system named is HT29 human colon carcinoma cells. In words: Cell growth inhibition assay (lactate dehydrogenase colour reaction), HT29. Type of experiment: cell-based.
Description: as §1, §2, §3

Experiment [3] concerns LIM1215 human colon carcinoma cells. The experiment can be described thus: Cell growth inhibition assay (lactate dehydrogenase colour reaction), LIM1215. Type of experiment: cell-based. The settings on record: for IC50: Homo sapiens, LIM1215.
Description: Stock solutions of 5 mM doxorubicin and prodoxorubicin in DMF, respectively, were stored at 4° C. For cell growth inhibition assays, 250-μM dilutions of doxorubicin and prodoxorubicin in PBS (pH 7.4) were freshly prepared from the 5 mM stock solutions and further diluted in cell culture medium to yield 10 nM to 25 μM solutions. […] Stock solutions of 1 mM camptothecin and procamptothecin in DMF, respectively, were stored at 4° C. For cell growth inhibition assays, 100-μM dilutions of camptothecin and procamptothecin in PBS (pH 7.4) were freshly prepared from the 1 mM stock solutions and further diluted in cell culture medium to yield 10 nM to 1 μM solutions. Cells grown in culture flasks were trypsinized, washed with PBS, resuspended in cell culture medium, and reduced to a single cell suspension by passing through a 18 G needle. After counting, the cells were plated at a density of 5×10^3 (HT29) or 1×10^4 (LIM1215, LNCap) cells/well in 96-well tissue culture plates and maintained in culture as described above. Drugs were diluted to a final concentration range of 10 nM to 25 μM in 100 μl 10% fetal bovine serum in RPMI 1640 and added to the cells 24 hours after plating. […] After drug addition, the cells were maintained at 37° C. in 5% CO2for 3 to 5 days (72 to 120 hours). Prior to the quantitative cell growth inhibition assay, the cell density was qualitatively analyzed by microscopy. […] The cells were then washed with 150 μl PBS (pH 7.5) and incubated with 100 μl of 9% (v/v) Triton-X 100 (Sigma, St. Louis, Mo.) for 45 minutes at 37° C. The supernatant was then transferred to a 96-well V-shaped plate and centrifuged to remove cell debris. […] For quantification, 50 μl aliquots were transferred to another 96-well plate and the color was read at 490 nm in an ELISA plate reader. The absorbance data were converted to percent cell density with the untreated controls being 100% and the background of the color reaction being 0%.
Setting [4] is: 72 h after drug addition, 50% decrease in cell density vs untreated control.
Where [5] appears, read: HT-29, 72 h after drug addition, 50% decrease in cell density vs untreated control.

For `CC(=O)CC(C)=O` [2,4-pentanedione], the “inhibition of 38C2 catalysis of prodoxorubicin cleavage” value in the experiment on antibody 38C2 was “completely inhibited”.
On to `CC[C@@]1(O)C(=O)OCc2c1cc1n(c2=O)Cc2cc3ccccc3nc2-1` [camptothecin], for which the figures for the IC50 in experiment [1] (setting [4]), in experiment [2] (setting [5]) and in experiment [3] (setting [4]) were 0.01 to 0.025 µM, 0.1 to 0.25 µM and 0.1 to 0.25 µM, respectively.
For `COc1cccc2c1C(=O)c1c(O)c3c(c(O)c1C2=O)C[C@@](O)(C(=O)CO)C[C@@H]3O[C@H]1C[C@H](N)[C@H](O)[C@H](C)O1` [doxorubicin], the IC50 was 0.4 µM in experiment [1] (setting [4]); 0.2 µM in experiment [1] (120 h after drug addition); 3 µM in experiment [2] (setting [5]); 2.5 µM in experiment [2] (HT-29, 120 h after drug addition); 0.4 µM in experiment [3] (setting [4]); 0.4 µM in experiment [3] (120 h after drug addition).
In the case of `C=CC(C)=O` [methyl vinyl ketone], in experiment [3] (LIM1215 cells, 120 h, without combination partner), the “cell growth inhibition when applied alone” value is recorded as “no inhibition of cell growth”.
